Assay results taken from US10973228B2, “Eco-friendly non-aqueous antimicrobial composition comprising hinokitiol with 1,3-propanediol and/or sorbitan caprylate” (ISP INVESTMENTS INC., priority 2012, dated 2021).
Values after ≈ are worked out from the molar mass of the structure shown.

Assays:
Format in all cases: cell-based
[1] = tested on: Burkholderia cepacia (DSM 7288); test: MIC study on agar, bacterial strain; settings: DSM7288, ppm of antimicrobial active (Hinokitiol), Caso-Agar pH 7.3, 2 to 3 weeks at 20 to 25° C.
Protocol: (§1) The individual concentrations of the test-product were weighed into sterile Erlenmeyer flasks and mixed with 100 ml of an appropriate growth media at a maximum temperature of about 40 to 50° C. Equal amounts of mixtures were poured into four Petri dishes. After cooling, the Petri dishes were inoculated with the respective standard strains. During the experiment, the Petri dishes were kept for 2 to 3 weeks at room temperature of about 20 to 25° C. in the dark. The following two different types of culture media were employed for the present studies: • i. Bacteria-Agar: merchantable Caso—Agar pH-Value: 7.3±0.2 • ii. Fungi/Yeast-Agar:merchantable Malt extract—Agar (3%) pH-Value: 5.6±0.2
(§2) After 2nd and 3rd weeks macroscopic evaluations were performed, the ratings are as follows:
(§3) The formulation under examination is considered to be efficient if the following conditions are duly fulfilled i.e. (i) after 2-3 weeks no growth of the tested culture is visible; (ii) with rising concentration of the tested formulation, the germ growth should macroscopically be reduced until it is not visible any more.

[2] = tested on: Staphylococcus aureus (DSM 799); test: MIC study on agar, bacterial strain
Protocol: as §1, §2, §3

[3] = tested on: Escherichia coli (DSM 1576); test: MIC study on agar, bacterial strain; settings: for reduction of MIC level of hinokitiol: against Escherichia coli
Protocol: as §1, §2, §3

[4] = tested on: Pseudomonas aeruginosa (DSM 1128); test: MIC study on agar, bacterial strain; settings: DSM1128, ppm of antimicrobial active (Hinokitiol), Caso-Agar pH 7.3, 2 to 3 weeks at 20 to 25° C.
Protocol: as §1, §2, §3

[5] = tested on: Trichoderma viride (DSM 63064); test: MIC study on agar, fungal strain; settings: DSM63064, ppm of antimicrobial active (Hinokitiol), Malt extract-Agar (3%) pH 5.6, 2 to 3 weeks at 20 to 25° C.
Protocol: as §1, §2, §3

[6] = tested on: Aspergillus brasiliensis (DSM 1988); test: MIC study on agar, fungal strain; settings: DSM1988, ppm of antimicrobial active (Hinokitiol), Malt extract-Agar (3%) pH 5.6, 2 to 3 weeks at 20 to 25° C.
Protocol: as §1, §2, §3

## CC(C)c1cccc(O)c(=O)c1 [Hinokitiol, 2-Hydroxy-6-propan-2-ylcyclohepta-2,4,6-trien-1-one]
[1]
  MIC: 500 µg/mL (≈ 3040 µM)
[2]; DSM799, Staphylococcus aureus, ppm of antimicrobial active (Hinokitiol), Caso-Agar pH 7.3, 2 to 3 weeks at 20 to 25° C.
  MIC: 100 µg/mL (≈ 609 µM)
[2]; in presence of 1,3-propanediol (Zemea), against Staphylococcus aureus
  reduction of MIC level of hinokitiol: 50%
[3]; DSM1576, Escherichia coli, ppm of antimicrobial active (Hinokitiol), Caso-Agar pH 7.3, 2 to 3 weeks at 20 to 25° C.
  MIC: 100 µg/mL (≈ 609 µM)
[3]; in presence of 1,3-propanediol (Zemea)
  reduction of MIC level of hinokitiol: 50%
[3]; in presence of sorbitan caprylate (Velsan SC)
  reduction of MIC level of hinokitiol: 50%
[4]
  MIC: 500 µg/mL (≈ 3040 µM)
[5]
  MIC: 100 µg/mL (≈ 609 µM)
[6]
  MIC: 100 µg/mL (≈ 609 µM)
